Results on three compounds are retold here after patent publication US11499981B2, “Methods of identifying modulators of SAMTOR-GATOR1 interaction and use of same to modulate mTORC1” (Whitehead Institute for Biomedical Research, priority 2017, dated 2022).

Assay [1] has as its target T1, SAMTOR-GATOR1-KICSTOR complex (Homo sapiens, UniProt Q1RMZ1).
T1 construct: FLAG-immunoprecipitates were prepared from the endogenously FLAG-tagged Depdc5 HEK-293T cells; endogenous in cells; host or cells: HEK-293T cells with endogenously FLAG-tagged Depdc5; anti-FLAG immunoprecipitate on beads
T1 sequence (Q1RMZ1 1-405): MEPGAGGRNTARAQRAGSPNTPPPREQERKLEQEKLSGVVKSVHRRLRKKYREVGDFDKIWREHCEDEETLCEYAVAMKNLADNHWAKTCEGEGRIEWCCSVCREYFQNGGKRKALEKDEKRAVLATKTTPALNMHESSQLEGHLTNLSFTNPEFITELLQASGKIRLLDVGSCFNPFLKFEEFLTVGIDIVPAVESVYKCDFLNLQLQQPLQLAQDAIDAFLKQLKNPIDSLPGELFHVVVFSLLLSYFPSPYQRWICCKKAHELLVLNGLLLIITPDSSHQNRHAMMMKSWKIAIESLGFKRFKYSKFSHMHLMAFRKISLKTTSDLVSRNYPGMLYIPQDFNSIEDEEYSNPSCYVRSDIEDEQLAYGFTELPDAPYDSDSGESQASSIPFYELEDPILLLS
Nature of the assay: In vitro GATOR1-SAMTOR dissociation assay (immunopurified complex, immunoblotting). In kind it is biochemical. The note with it: for disruption of the interaction between SAMTOR and GATOR1 (FIG. 3D): 100 μM, added to FLAG-Depdc5 immunoprecipitates; for disruption of the interaction of SAMTOR with GATOR1-KICSTOR: added directly to the immunopurified complex kept at 4° C. On the procedure:
HEK-293T cells stably expressing endogenous FLAG-tagged Depdc5 were lysed and subjected to anti-FLAG immunoprecipitations as described above. The GATOR1-SAMTOR complexes immobilized on the FLAG beads were washed twice in lysis buffer with 250 mM NaCl, and then incubated for 25 minutes in 0.3 ml of cytosolic buffer (0.1% Triton, 40 mM HEPES pH7.4, 10 mM NaCl, 150 mM KCl, 2.5 mM MgCl2) with the indicated concentrations of SAM or SAH in the cold. The amount of GATOR1, SAMTOR, GATOR2, and KICSTOR that remained bound was assayed by SDS-PAGE and immunoblotting as described previously.

In assay [2] the target is T2, human FLAG-SAMTOR (SAMTOR, C7orf60; wild-type, FLAG-tagged, expressed in HEK-293F cells) (Homo sapiens, UniProt Q1RMZ1).
T2 construct: made in house; host or cells: HEK-293F (suspension), transient transfection of pRK5-FLAG-SAMTOR; anti-FLAG purification and size-exclusion chromatography
T2 sequence (Q1RMZ1 1-405): T1 sequence (Q1RMZ1 1-405)
The assay can be described thus: Radiolabelled SAM binding assay: competition of unlabeled SAH with [3H]SAM for purified FLAG-SAMTOR (FIG. 3B). The following applies: 5 μM [3H]SAM competed with unlabeled SAH; 5 μg purified wild-type FLAG-SAMTOR on anti-FLAG beads, 1 h on ice, pH 7.4; Ki=IC50/(1+([3H]SAM)/Kd). From the text: FIGS. 3A-3G depict S-adenosylmethionine binds SAMTOR to disrupt its interaction with GATOR1 and KICSTOR. FIG. 3A provides a schematic of the human SAMTOR protein indicating the Class I Rossmann fold methyltransferase domain. Shown is an alignment of partial sequences of this domain from SAMTOR in indicated species. Amino acid positions are colored from white to blue in order of increasing sequence similarity. Orange dots denote the G172 and D190 residues of human SAMTOR. […] FLAG-SAMTOR protein prepared from HEK-293F cells transiently expressing the FLAG-SAMTOR cDNA was further purified by size-exclusion chromatography. The protein was analyzed by SDS-PAGE followed by Coomassie blue staining. Binding assays were performed with purified FLAG-SAMTOR incubated with 5 μM [^3H]SAM and indicated concentrations of unlabeled SAM or SAH. Values for each point are mean±SD of three technical replicates from one representative experiment. The experiment was performed twice. […] FLAG-immunoprecipitates and cell lysates were analyzed by immunoblotting for the levels of the indicated proteins. […] The experiment was performed and analyzed as in (FIG. 3C). […] HA-immunoprecipitates and cell lysates were analyzed as (FIG. 3C). […] FLAG-immunoprecipitates and cell lysates were analyzed by immunoblotting for the phosphorylation states and levels of the indicated proteins. […]

The next assay addresses T3, human FLAG-SAMTOR (Homo sapiens, UniProt Q1RMZ1).
T3 construct: made in house; host or cells: HEK-293F suspension cells, transient transfection; anti-FLAG IP, FLAG-peptide elution, size-exclusion chromatography
T3 sequence (Q1RMZ1 1-405): T1 sequence (Q1RMZ1 1-405)
Nature of the assay: Equilibrium [3H]SAM binding assay and competition binding assay with purified FLAG-SAMTOR. On the procedure: For radiolabelled SAM binding assays using FLAG-tagged wild-type SAMTOR (FIG. 3B), suspension HEK-293F cells were seeded at 2.5 million cells/ml, and the pRK5-FLAG-SAMTOR cDNA was transfected using polyethylenimine. 72-96 hours after transfection, cells were rinsed one time in cold PBS and lysed in 1% Triton lysis buffer (1% Triton, 40 mM Hepes pH 7.4, 2.5 mM MgCl2 and 1 tablet of EDTA-free protease inhibitor [Roche] per 25 ml buffer). Following anti-FLAG immunoprecipitation, the beads were washed 4 times with lysis buffer containing 500 mM NaCl and the protein was eluted in FLAG Elution Buffer (40 mM Hepes pH 7.4, 150 mM NaCl, 2.5 mM MgCl2 and 0.5 mg/ml FLAG peptide) for 1 hour at 4° C. […] Each sample was mixed well and then 15 μl aliquots were separately quantified using a TriCarb scintillation counter (Perkin Elmer). This process was repeated in pairs for each sample, to ensure similar incubation and wash times for all samples analyzed across different experiments. The affinities for SAM and SAH of human FLAG-SAMTOR were determined by first normalizing the bound [^3H]-labeled SAM concentrations across three separate binding assays performed with varying amounts of cold SAM or SAH. […]

The test system of another assay is mTORC1. The assay can be described thus: mTORC1 signaling in methionine-starved cells (immunoblotting of mTORC1 substrate phosphorylation). In kind it is cell-based, human. The note with it: for activation of mTORC1 after loss of MAT2A: MAT2A dox-off HEK-293T cells, 30 ng/mL doxycycline for 50 hours.
Assay [3] deals with T4, SAMTOR-GATOR1-KICSTOR interaction in HEK-293T cells (Homo sapiens, UniProt Q1RMZ1).
T4 construct: expressed in transfected cells; host or cells: HEK-293T cells transiently transfected with HA-SAMTOR in pRK5 (25 ng)
T4 sequence (Q1RMZ1 1-405): T1 sequence (Q1RMZ1 1-405)
The assay can be described thus: Co-immunoprecipitation of GATOR1 with HA-SAMTOR from methionine-starved and restimulated cells. The class given is cell-based. The note with it: HEK-293T starved of methionine 2 hours.
Experimental: Cell volumes were determined by Coulter counter and used to calculate whole cell concentrations. […] HA-immunoprecipitates and cell lysates were analyzed by immunoblotting for the levels of the indicated proteins. […] Cell lysates were analyzed by immunoblotting for the phosphorylation states and the levels of the indicated proteins. […] Wild-type or SAMTOR-deficient HEK-293T cells were starved for the indicated amino acid for 2 hours. Cell lysates were analyzed by immunoblotting for the phosphorylation states and the levels of the indicated proteins. […] SAMTOR-deficient or control HEK-293T cells were treated as indicated for 2 hours prior to processing for immunofluorescence detection of mTOR and the lysosomal marker LAMP2. […] FLAG-immunoprecipitates and cell lysates were analyzed by immunoblotting for the phosphorylation states and the levels of the indicated proteins. […] Cell lysates were analyzed by immunoblotting for the phosphorylation states and the levels of the indicated proteins. […] Cell lysates were analyzed by immunoblotting for the phosphorylation states and the levels of the indicated proteins.
For anti-FLAG immunoprecipitations, anti-FLAG M2 Affinity Gel (SIGMA A2220) was washed with lysis buffer three times then resuspended to a ratio of 50:50 affinity gel to lysis buffer. […] Denatured samples were resolved by 8%-12% SDS-PAGE, and analyzed by immunoblotting.

Experimental for mTORC1: Cell volumes were determined by Coulter counter and used to calculate whole cell concentrations. […] HA-immunoprecipitates and cell lysates were analyzed by immunoblotting for the levels of the indicated proteins. […] Cell lysates were analyzed by immunoblotting for the phosphorylation states and the levels of the indicated proteins. […] Wild-type or SAMTOR-deficient HEK-293T cells were starved for the indicated amino acid for 2 hours. Cell lysates were analyzed by immunoblotting for the phosphorylation states and the levels of the indicated proteins. […] SAMTOR-deficient or control HEK-293T cells were treated as indicated for 2 hours prior to processing for immunofluorescence detection of mTOR and the lysosomal marker LAMP2. In all images, insets represent selected fields magnified 3.07× as well as their overlays. Scale bar represents 10 μm. […] SAMTOR-null cells were co-transfected with a cDNA for FLAG-S6K1 along with the indicated HA-tagged cDNAs and cells were treated as in (FIG. 4C) prior to preparing lysates and FLAG-immunoprecipitates. FLAG-immunoprecipitates and cell lysates were analyzed by immunoblotting for the phosphorylation states and the levels of the indicated proteins. […] S2R+ cells were transfected with dsRNAs targeting the indicated mRNAs and starved for 1 hour for the indicated amino acid. Cell lysates were analyzed by immunoblotting for the phosphorylation states and the levels of the indicated proteins. […] MAT2A dox-off HEK-293T cells were treated with 30 ng/mL doxycycline for 50 hours prior to starving them as in (FIG. 4C). Cell lysates were analyzed by immunoblotting for the phosphorylation states and the levels of the indicated proteins.
Cells were rinsed with cold PBS and lysed in lysis buffer (1% Triton, 10 mM β-glycerol phosphate, 10 mM pyrophosphate, 40 mM Hepes pH 7.4, 2.5 mM MgCl2 and 1 tablet of EDTA-free protease inhibitor [Roche] (per 25 ml buffer)). […] Cell lysate samples were prepared by addition of 5× sample buffer (0.242 M Tris, 10% SDS, 25% glycerol, 0.5 M DTT, and bromophenol blue), resolved by 8%-16% SDS-PAGE, and analyzed by immunoblotting.

With `Nc1ncnc2c1ncn2[C@@H]1O[C@H](CSCC[C@H](N)C(=O)O)[C@@H](O)[C@H]1O` [SAH, S-adenosylhomocysteine], in assay [1], the “disruption of the interaction between SAMTOR and GATOR1 (FIG. 3D)” value was “disrupt the interaction”; the “disruption of the interaction of SAMTOR with GATOR1-KICSTOR” value is recorded as “disrupted the interaction”. The same compound returned a Ki in assay [2] of roughly 4.6 µM. Also, on human FLAG-SAMTOR (5 μM [3H]SAM with unlabeled competitor), the “binding to SAMTOR in competition binding assay” value is “can also bind”.
Regarding `C[S+](CC[C@H](N)C(=O)[O-])C[C@H]1O[C@@H](n2cnc3c(N)ncnc32)[C@H](O)[C@@H]1O` (stereo partly drawn) [SAM, S-adenosylmethionine], in assay [1], the “disruption of the interaction between SAMTOR and GATOR1 (FIG. 3D)” value is on record as “disrupt the interaction”; the “disruption of the interaction of SAMTOR with GATOR1-KICSTOR” value was “disrupted the interaction”. Moreover, the “activation of mTORC1 after loss of MAT2A” value with mTORC1 is reported as “largely intact”. Also, the “mTORC1 signaling after addition to methionine-starved cells” value in the assay on mTORC1 (methionine-starved HEK-293T cells (FIG. 4H)) was “reactivated mTORC1 signaling”. At human FLAG-SAMTOR (5 μM [3H]SAM with unlabeled SAM, read-out: dissociation constant of SAM for SAMTOR), the Kd was roughly 7 µM. The “SAMTOR-GATOR1-KICSTOR interaction in cells after re-addition” value in assay [3] (restimulated 20 minutes with 1 mM SAM) was “reduced the interaction to baseline levels”.
For the compound `CSCC[C@H](N)C(=O)O` [methionine], in the assay with mTORC1, the “activation of mTORC1 after loss of MAT2A” value was “greatly attenuated”. Further, in assay [3] (restimulated 20 minutes with 100 μM methionine), the “SAMTOR-GATOR1-KICSTOR interaction in cells after re-addition” value was “reduced the interaction to baseline levels”.
